Data taken from patent US10774039B2, “Cyclopropene amino acids and methods” (United Kingdom Research and Innovation, priority 2014, dated 2020).

Experiments:
[1] = In vitro labelling of purified sfGFP150 proteins with tetrazine-dye conjugate 4a, time course and rate constant; conditions: restated in example 6
Method: FIG. 2C: Determining the rate constant for labelling of sfGFP-3 (10.6 sfGFP incorporating 3 at position 150), with 10 equivalents of 4a. 2 nmol of purified sfGFP-3, (10.6 μM in 20 mM Tris-HCl, 100 mM NaCl, 2 mM EDTA, pH 7.4) were incubated with 20 nmol of tetrazine-dye conjugate 4a (10 μl of a 2 mM solution in DMSO). At different time points 8 μl, aliquots were taken from the solution and quenched with a 700-fold excess of BCN and plunged into liquid nitrogen. Samples were mixed with NuPAGE LDS sample buffer supplemented with 5% β-mercaptoethanol, heated for 10 min to 90° C. and analyzed by 4-12% SDS page. The amounts of labelled proteins were quantified by scanning the fluorescent bands with a Typhoon Trio phosphoimager (GE Life Sciences). Bands were quantified with the ImageQuant™ TL software (GE Life Sciences) using rubber band background subtraction. The rate constant was determined by fitting the data to a single-exponential equation. The calculated observed rate k′ was divided by the concentration of 4a to obtain rate constant k for the reaction. Measurements were done in triplicate. All data processing was performed using Kaleidagraph software (Synergy Software, Reading, UK). […]

PylRS/tRNACUA pair = PylRS/tRNACUA pair (Methanosarcina mazei, UniProt Q8PWY1); assay: Amber suppression of mCherry-TAG-EGFP-HA in HEK293 cells (western blot); format: cell-based; design: expressed in transfected cells; host or cells: HEK293 (ATCC CRL-1573); conditions: amber stop codon
Method: Anti-FLAG detected tagged PylRS. FIG. 8B: Specific labelling of mCh-TAG-EGFP-HA (immunoprecipitated from 10^6 cells) with 4a (20 μM in 50 μL PBS, 1 h, RT) confirms the incorporation of 3 into protein in HEK293 cells. FIG. 8C: SORT-M labelling of 3 that is statistically incorporated into newly synthesised proteins across the whole proteome of mammalian cells directed by six different PylRS/PyltRNAXXX (mutants using 0.5 mM 3. Labeling with 4g (20 μM in PBS, 1 h, RT, as above). The amino acids in parentheses are the natural amino acids encoded by the endogenous tRNA bearing the corresponding anti-codon.
HEK293 Cells (ATCC CRL-1573) were plated on 24 well plates and grown to near confluence. The cells were transfected using Lipofectamine 2000 (Invitrogen) with the pMmPylS-mCherry-TAG-EGFP-HA construct and the p4CMVE-U6-PylT construct.^18 After 16 hrs growth with or without 1 mM 3 or with 1 mM 1 the cells were lysed on ice using RIPA buffer (Sigma). The lysates were spun down and the supernatant was added to 4×LDS sample buffer (Life technologies). The samples were run out by SDS-PAGE, transferred to a nitrocellulose membrane and blotted using primary rat anti-HA(clone 3F10, Roche, No. 867 423) and mouse anti-FLAG (clone G191, Abnova, cat. MAB8183), the secondary antibodies were anti-rat (Invitrogen, A11077) and anti-mouse (Cell Signaling Technologies, No. 7076S).

Sequence of PylRS/tRNACUA pair (Q8PWY1 whole entry): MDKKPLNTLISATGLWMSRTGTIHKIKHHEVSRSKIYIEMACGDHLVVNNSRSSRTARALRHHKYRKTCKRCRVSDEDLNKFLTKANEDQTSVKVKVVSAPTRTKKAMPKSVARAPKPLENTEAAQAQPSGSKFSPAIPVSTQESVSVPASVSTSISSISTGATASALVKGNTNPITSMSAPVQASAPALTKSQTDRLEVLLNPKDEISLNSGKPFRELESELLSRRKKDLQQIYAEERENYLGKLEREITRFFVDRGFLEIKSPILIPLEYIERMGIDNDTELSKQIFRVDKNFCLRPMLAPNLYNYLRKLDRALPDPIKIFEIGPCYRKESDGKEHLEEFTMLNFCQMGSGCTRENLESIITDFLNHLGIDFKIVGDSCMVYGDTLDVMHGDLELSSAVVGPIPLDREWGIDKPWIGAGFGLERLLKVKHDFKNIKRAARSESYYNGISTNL

## CC1=CC1COC(=O)NCCCC[C@H](N)C(=O)O (stereo partly drawn) [amino acid 3, N^ε-[((2-methylcycloprop-2-en-1-yl)methoxy)carbonyl]-L-lysine]
[1]
  on-protein rate constants of reaction with tetrazines: 27 M⁻¹ s⁻¹
PylRS/tRNACUA pair
  full-length mCherry-EGFP-HA protein expression: detected only in the presence
